# Assay results from patent EP0445731B1 (priority 1990, dated 1991).
# Where a name gives a salt, the structure may show the parent alone. Read-outs that look alike come from different tables or passages of the source.
# Assays:
# muscarinic binding site [1] = details: rat cerebral cortex tissue, radiolabeled quinuclidinyl benzilate, read-out: IC₅₀nM RQNB
# muscarinic binding site [2] = test: RCMD screening assay: inhibition of binding of radiolabeled cis-methyldioxolane (muscarinic agonist) to rat cerebral cortex tissue; details: read-out: IC₅nM RCMD
# Protocol: Similarly, in the RCMD screening assay, described more fully by T. W. Vickeroy, et al, 229(3):747 (1984), rat cerebral cortex tissue was treated with radiolabeled cis-methyldioxolane, a known muscarinic binding site agonist. The concentrations of test compounds required to inhibit 50% of the binding of this muscarinic agonist were then determined. […]
Compound,IC50 (muscarinic binding site [1]; hydrochloride) [nM],IC50 (muscarinic binding site [2]; hydrochloride) [nM],IC50 (muscarinic binding site [1]) [nM],IC50 (muscarinic binding site [2]) [nM]
"C=CC=CCON=C1CN2CCC1C2 (single isomer, unassigned) [28 (Isomer A), 1-Azabicyclo[2.2.1]-heptan-3-one, O-(2,4-pentadienyl)oxime hydrochloride]",434,12.9,–,–
"C=CC=CCON=C1CN2CCC1C2 (single isomer, unassigned) [28 (Isomer B), 1-Azabicyclo[2.2.1]-heptan-3-one, O-(2,4-pentadienyl)oxime hydrochloride]",9650,256,–,–
"CCON=C1CN2CCC1C2 (centres unmarked) [Example 2, 1-Azabicyclo[2.2.1]hept-3-one, O-ethyloxime hydrochloride]",–,–,3110,12.5
"CON=C1CN2CCC1C2 (centres unmarked) [Example 3, 1-Azabicyclo[2.2.1]heptan-3-one, O-methyloxime hydrochloride]",–,–,24600,18.2
"C#CCON=C1CN2CCC1C2 (centres unmarked) [Example 4, 1-Azabicyclo[2.2.1]-heptan-3-one, O-(2-propynyl)oxime hydrochloride]",–,–,2970,3.5
"c1ccc(CON=C2CN3CCC2C3)cc1 (centres unmarked) [Example 5, 1-Azabicyclo[2.2.1]-heptan-3-one, O-(phenylmethyl)oxime hydrochloride]",–,–,5950,133
"CCCON=C1CN2CCC1C2 (centres unmarked) [Example 6, 1-Azabicyclo[2.2.1]-heptan-3-one, O-propyloxime hydrochloride]",–,–,3850,120
"CC(C)ON=C1CN2CCC1C2 (centres unmarked) [Example 7, 1-Azabicyclo[2.2.1]-heptan-3-one, O-(1-methylethyl)oxime hydrochloride]",–,–,2030,46
"C=CCON=C1CN2CCC1C2 (centres unmarked) [Example 8, 1-Azabicyclo[2.2.1]-heptan-3-one, O-(2-propenyl)oxime oxalate]",–,–,4780,53
"N#CCON=C1CN2CCC1C2 (centres unmarked) [Example 27, {[(1-Azabicyclo[2.2.1]-heptan-3-ylidene)amino]-oxy}acetonitrile hydrochloride]",–,–,8820,116
